Test results as given in patent US20240390340A1 (INCYTE CORPORATION, priority 2023, published 2024).
Like-named read-outs stand apart in the source and are kept apart here.

Tests used:
KRAS G12D = KRAS G12D (Homo sapiens, UniProt P01116, G12D); assay: GDP-GTP exchange assay (bodipy-GDP/GppNHp, SOS1), KRAS G12D; assay type: biochemical
KRAS G12V = KRAS G12V (Homo sapiens, UniProt P01116, G12V); assay: GDP-GTP exchange assay (bodipy-GDP/GppNHp, SOS1), KRAS G12V; assay type: biochemical
Caco-2 cells = assay: Caco2 assay (Papp A-B); assay type: in vitro ADME; details: test compound 50 μM, 120 min, 37° C.
Procedure, shortened: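 Caco-2 monolayers grown 22–25 days on Transwells (TEER 300 Ω·cm^2) were dosed apically with 50 μM compound in HBSS; basolateral receiver held HBSS with 4% BSA. Incubation 120 min at 37° C, 5% CO2; donor and receiver samples quantified by LCMS and Papp A-B calculated from receiver-side cumulative flux slope.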

[1] = Table H, column G12D, for compounds isolated as several atropisomers/diastereoisomers the value for the most potent isomer is quoted, read-out: KRAS G12D exchange assay IC50
[2] = Table H, column G12V, for compounds isolated as several atropisomers/diastereoisomers the value for the most potent isomer is quoted, read-out: KRAS G12V exchange assay IC50

Chain of KRAS G12D (P01116 1-188 isoform P01116-2 G12D): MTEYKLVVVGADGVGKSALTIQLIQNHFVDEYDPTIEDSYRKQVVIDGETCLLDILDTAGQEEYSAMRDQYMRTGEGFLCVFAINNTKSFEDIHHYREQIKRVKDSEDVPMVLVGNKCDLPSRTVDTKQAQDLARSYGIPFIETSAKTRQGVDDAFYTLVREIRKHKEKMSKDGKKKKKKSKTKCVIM
Chain of KRAS G12V (P01116 1-188 isoform P01116-2 G12V): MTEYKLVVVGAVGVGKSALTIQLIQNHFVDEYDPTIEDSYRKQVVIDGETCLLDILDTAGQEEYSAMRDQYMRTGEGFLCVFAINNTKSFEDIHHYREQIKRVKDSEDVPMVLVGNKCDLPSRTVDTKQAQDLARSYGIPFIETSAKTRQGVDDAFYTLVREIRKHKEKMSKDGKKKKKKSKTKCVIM

| SMILES | IC50 (KRAS G12D; [1]) [nM] | IC50 (KRAS G12V; [2]) [nM] | Caco-2 (Caco-2 cells) | IC50 (KRAS G12D; bodipy-loaded KRAS G12D 2.5 nM, 4 h pre-incubation, value for the most potent isomer quoted for certain compounds, read-out: G12D (KRAS G12D exchange assay IC50)) [nM] | IC50 (KRAS G12V; KRAS G12V mutant, value for the most potent isomer quoted for certain compounds, read-out: G12V (KRAS G12V exchange assay IC50)) [nM] |
| --- | --- | --- | --- | --- | --- |
| [2H]C([2H])([2H])O[C@H]1CC[C@@H]1O[C@H]1C[C@H](c2cc3c(C)nc4c(F)c(-c5cccc(Cl)c5Cl)c(CCC#N)cc4c3n2[C@H]2[C@H]3CN[C@@H]2C3)N(C(=O)C2CC2)C1 (stereo in doubt) [Example 80, trans-3-(1-((1R,4R,5S)-2-Azabicyclo[2.1.1]hexan-5-yl)-2-((2R,4S)-1-(cyclopropanecarbonyl)-4-(2-(methoxy-d3)cyclobutoxy)pyrrolidin-2-yl)-7-(2,3-dichlorophenyl)-6-fluoro-4-methyl-1H-pyrrolo[3,2-c]quinolin-8-yl)propanenitrile] | ≤ 100 | ≤ 100 | ++ (a Caco-2 value of >0.5 but ≤1) |  |  |
| COC1CCC(O[C@H]2C[C@H](c3cc4c(C)nc5c(F)c(-c6cccc(Cl)c6Cl)c(CCC#N)cc5c4n3[C@H]3[C@H]4CN[C@@H]3C4)N(C(=O)C3CC3)C2)C1 (stereo partly drawn) [Example 23] | ≤ 100 | ≤ 100 | ++ (a Caco-2 value of >0.5 but ≤1) |  |  |
| Cc1nc2c(F)c(-c3cccc(Cl)c3Cl)c(CCC#N)cc2c2c1cc([C@H]1C[C@H](n3cc(C(C)(C)C)nn3)CN1C(=O)C1CC1)n2[C@H]1[C@H]2CN[C@@H]1C2 [Example 4, 3-(1-((1R,4R,5S)-2-Azabicyclo[2.1.1]hexan-5-yl)-2-((2R,4S)-4-(4-(tert-butyl)-1H-1,2,3-triazol-1-yl)-1-(cyclopropanecarbonyl)pyrrolidin-2-yl)-7-(2,3-dichlorophenyl)-6-fluoro-4-methyl-1H-pyrrolo[3,2-c]quinolin-8-yl)propanenitrile] | ≤ 100 | ≤ 100 | +++ (a Caco-2 value of >1) |  |  |
| Cc1nc2c(F)c(-c3cccc(Cl)c3Cl)c(CCC#N)cc2c2c1cc([C@H]1C[C@H](OCc3ccccc3F)CN1C(=O)C1CC1)n2[C@H]1[C@H]2CN[C@@H]1C2 [Example 20] | ≤ 100 | ≤ 100 | + (a Caco-2 value of ≤0.5) |  |  |
| COc1cc(O[C@H]2C[C@H](c3cc4c([C@@H](C)O)nc5c(F)c(-c6cccc(Cl)c6Cl)c(CCC#N)cc5c4n3[C@H]3[C@H]4CN[C@@H]3C4)N(C(=O)C3(C)CC3)[C@@H]2C)c(F)cn1 [Example 52, 3-(1-((1R,4R,5S)-2-Azabicyclo[2.1.1]hexan-5-yl)-7-(2,3-dichlorophenyl)-6-fluoro-2-((2R,4S,5R)-4-((5-fluoro-2-methoxypyridin-4-yl)oxy)-5-methyl-1-(1-methylcyclopropane-1-carbonyl)pyrrolidin-2-yl)-4-((R)-1-hydroxyethyl)-1H-pyrrolo[3,2-c]quinolin-8-yl)propanenitrile] | ≤ 100 | ≤ 100 | + (a Caco-2 value of ≤0.5) |  |  |
| COc1cc(O[C@H]2C[C@H](c3cc4c(C(C)O)nc5c(F)c(-c6cccc(Cl)c6Cl)c(CCC#N)cc5c4n3[C@H]3[C@H]4CN[C@@H]3C4)N(C(=O)C3CC3)C2)ccn1 (stereo partly drawn) [Example 2, 3-(1-((1R,4R,5S)-2-Azabicyclo[2.1.1]hexan-5-yl)-2-((2R,4S)-1-(cyclopropanecarbonyl)-4-((2-methoxypyridin-4-yl)oxy)pyrrolidin-2-yl)-7-(2,3-dichlorophenyl)-6-fluoro-4-(1-hydroxyethyl)-1H-pyrrolo[3,2-c]quinolin-8-yl)propanenitrile] | ≤ 100 | ≤ 100 | +++ (a Caco-2 value of >1) |  |  |
| COc1cccc(F)c1CO[C@H]1C[C@H](c2cc3c(C)nc4c(F)c(-c5cccc(Cl)c5Cl)c(CCC#N)cc4c3n2[C@H]2[C@H]3CN[C@@H]2C3)N(C(=O)C2CC2)C1 [Example 16] | ≤ 100 | ≤ 100 | ++ (a Caco-2 value of >0.5 but ≤1) |  |  |
| Cc1nc2c(F)c(-c3cccc(Cl)c3Cl)c(CCC#N)cc2c2c1cc([C@H]1C[C@H](Oc3cnn(C)c3C#N)CN1C(=O)C1CC1)n2[C@H]1[C@H]2CN[C@@H]1C2 [Example 46, 4-(((3S,5R)-5-(1-((1R,4R,5S)-2-Azabicyclo[2.1.1]hexan-5-yl)-8-(2-cyanoethyl)-7-(2,3-dichlorophenyl)-6-fluoro-4-methyl-1H-pyrrolo[3,2-c]quinolin-2-yl)-1-(cyclopropanecarbonyl)pyrrolidin-3-yl)oxy)-1-methyl-1H-pyrazole-5-carbonitrile] | ≤ 100 | ≤ 100 | + (a Caco-2 value of ≤0.5) |  |  |
| CC[C@@H]1[C@@H](Oc2cc(OC)ncc2F)C[C@H](c2cc3c([C@@H](C)O)nc4c(F)c(-c5cccc(Cl)c5Cl)c(CCC#N)cc4c3n2[C@H]2[C@H]3CN[C@@H]2C3)N1C(=O)C1CC1 [Example 82, 3-(1-((1R,4R,5S)-2-Azabicyclo[2.1.1]hexan-5-yl)-2-((2R,4S,5R)-1-(cyclopropanecarbonyl)-5-ethyl-4-((5-fluoro-2-methoxypyridin-4-yl)oxy)pyrrolidin-2-yl)-7-(2,3-dichlorophenyl)-6-fluoro-4-((R)-1-hydroxyethyl)-1H-pyrrolo[3,2-c]quinolin-8-yl)propanenitrile] |  |  | +++ (a Caco-2 value of >1) | ≤ 100 | ≤ 100 |
| Cc1nc2c(F)c(-c3cccc(Cl)c3Cl)c(CCC#N)cc2c2c1cc([C@H]1C[C@H](OCc3cnsn3)CN1C(=O)C1CC1)n2[C@H]1[C@H]2CN[C@@H]1C2 [Example 13] | ≤ 100 | ≤ 100 | + (a Caco-2 value of ≤0.5) |  |  |
| Cc1nc2c(F)c(-c3cccc(Cl)c3Cl)c(CCC#N)cc2c2c1cc([C@H]1C[C@H](Oc3ccnc4ccsc34)CN1C(=O)C1CC1)n2[C@H]1[C@H]2CN[C@@H]1C2 [Example 55, 3-(1-((1R,4R,5S)-2-Azabicyclo[2.1.1]hexan-5-yl)-2-((2R,4S)-1-(cyclopropanecarbonyl)-4-(thieno[3,2-b]pyridin-7-yloxy)pyrrolidin-2-yl)-7-(2,3-dichlorophenyl)-6-fluoro-4-methyl-1H-pyrrolo[3,2-c]quinolin-8-yl)propanenitrile] | ≤ 100 | ≤ 100 | + (a Caco-2 value of ≤0.5) |  |  |
| Cc1cccc(F)c1CO[C@H]1C[C@H](c2cc3c(C)nc4c(F)c(-c5cccc(Cl)c5Cl)c(CCC#N)cc4c3n2[C@H]2[C@H]3CN[C@@H]2C3)N(C(=O)C2CC2)C1 [Example 19] | ≤ 100 | ≤ 100 | + (a Caco-2 value of ≤0.5) |  |  |
| Cc1nc2c(F)c(-c3cccc(Cl)c3Cl)c(CCC#N)cc2c2c1cc([C@H]1C[C@H](Oc3cccc(C#N)c3)CN1C(=O)C1CC1)n2[C@H]1[C@H]2CN[C@@H]1C2 [Example 45, 3-(((3S,5R)-5-(1-((1R,4R,5S)-2-Azabicyclo[2.1.1]hexan-5-yl)-8-(2-cyanoethyl)-7-(2,3-dichlorophenyl)-6-fluoro-4-methyl-1H-pyrrolo[3,2-c]quinolin-2-yl)-1-(cyclopropanecarbonyl)pyrrolidin-3-yl)oxy)benzonitrile] | ≤ 100 | ≤ 100 | + (a Caco-2 value of ≤0.5) |  |  |
| COc1nccc(O[C@H]2C[C@H](c3cc4c(C)nc5c(F)c(-c6cccc(Cl)c6Cl)c(CCC#N)cc5c4n3[C@H]3[C@H]4CN[C@@H]3C4)N(C(=O)C3CC3)C2)n1 [Example 42, 3-(1-((1R,4R,5S)-2-Azabicyclo[2.1.1]hexan-5-yl)-2-((2R,4S)-1-(cyclopropanecarbonyl)-4-((2-methoxypyrimidin-4-yl)oxy)pyrrolidin-2-yl)-7-(2,3-dichlorophenyl)-6-fluoro-4-methyl-1H-pyrrolo[3,2-c]quinolin-8-yl)propanenitrile] | ≤ 100 | ≤ 100 | + (a Caco-2 value of ≤0.5) |  |  |
| Cc1nc2c(F)c(-c3cccc(Cl)c3Cl)c(CCC#N)cc2c2c1cc([C@H]1C[C@H](n3cc(C4(C(F)F)CC4)nn3)CN1C(=O)C1CC1)n2[C@H]1[C@H]2CN[C@@H]1C2 [Example 67, 3-(1-((1R,4R,5S)-2-Azabicyclo[2.1.1]hexan-5-yl)-2-((2R,4S)-1-(cyclopropanecarbonyl)-4-(4-(1-(difluoromethyl)cyclopropyl)-1H-1,2,3-triazol-1-yl)pyrrolidin-2-yl)-7-(2,3-dichlorophenyl)-6-fluoro-4-methyl-1H-pyrrolo[3,2-c]quinolin-8-yl)propanenitrile] | ≤ 100 | ≤ 100 | + (a Caco-2 value of ≤0.5) |  |  |
| C[C@@H]1[C@@H](Oc2cc(F)ccn2)C[C@H](c2cc3c([C@@H](C)O)nc4c(F)c(-c5cccc(Cl)c5Cl)c(CCC#N)cc4c3n2[C@H]2[C@H]3CN[C@@H]2C3)N1C(=O)C1CC1 [Example 63, 3-(1-((1R,4R,5S)-2-Azabicyclo[2.1.1]hexan-5-yl)-2-((2R,4S,5R)-1-(cyclopropanecarbonyl)-4-((4-fluoropyridin-2-yl)oxy)-5-methylpyrrolidin-2-yl)-7-(2,3-dichlorophenyl)-6-fluoro-4-((R)-1-hydroxyethyl)-1H-pyrrolo[3,2-c]quinolin-8-yl)propanenitrile] | ≤ 100 | ≤ 100 | ++ (a Caco-2 value of >0.5 but ≤1) |  |  |
| COc1cc(O[C@H]2C[C@H](c3cc4c([C@@H](C)O)nc5c(F)c(-c6cccc(Cl)c6Cl)c(CCC#N)cc5c4n3[C@H]3[C@H]4CN[C@@H]3C4)N(C(=O)C3CC3)C2)ncn1 [Example 57, 3-(1-((1R,4R,5S)-2-Azabicyclo[2.1.1]hexan-5-yl)-2-((2R,4S)-1-(cyclopropanecarbonyl)-4-((6-methoxypyrimidin-4-yl)oxy)pyrrolidin-2-yl)-7-(2,3-dichlorophenyl)-6-fluoro-4-((R)-1-hydroxyethyl)-1H-pyrrolo[3,2-c]quinolin-8-yl)propanenitrile] | ≤ 100 | ≤ 100 | ++ (a Caco-2 value of >0.5 but ≤1) |  |  |
